Publication PMC6522927, “Fibrate-based N-acylsulphonamides targeting carbonic anhydrases: synthesis, biochemical evaluation, and docking studies” (Journal of Enzyme Inhibition and Medicinal Chemistry, 2019)
Entries after “also recorded” stand apart in the source; their conditions may differ.

What was measured:
[1] = molecular target: T1, hCA II (Homo sapiens, UniProt P00918); assay: stopped-flow CO2 hydrase assay, hCA II; assay type: biochemical; settings: for Ki: recombinant hCA II, CO2 hydration, 15 min preincubation; for inhibition of hCA II (in words): result stated in words
T1 construct: made in house
Experimental: (§1) An Applied Photophysics stopped-flow instrument has been used for assaying the CA catalysed CO2 hydration activity. Phenol red (0.2 mM) has been used as indicator, working at the absorbance maximum of 557 nm, with 20 mM Hepes (pH 7.5, for α-CAs) as buffer, and 20 mM NaClO4 (for maintaining constant the ionic strength), following the initial rates of the CA-catalysed CO2 hydration reaction for a period of 10–100 s. The CO2 concentrations ranged from 1.7 to 17 mM for the determination of the kinetic parameters and inhibition constants. In particular, CO2 was bubbled in distilled deionised water for 30 min till saturation. A CO2 kit (Sigma, Milan, Italy) was used to measure the concentration in serially diluted solutions from the saturated one at the same temperature. For each inhibitor at least six traces of the initial 5–10% of the reaction have been used for determining the initial velocity. The uncatalysed rates were determined in the same manner and subtracted from the total observed rates. Stock solutions of inhibitor ([…]) were prepared in distilled–deionised water and dilutions up to 0.1 nM were done thereafter with the assay buffer. Inhibitor and enzyme solutions were preincubated together for 15 min at room temperature prior to assay, in order to allow for the formation of the E–I complex or for the eventual active site mediated hydrolysis of the inhibitor. The inhibition constants were obtained by non-linear least-squares methods using PRISM 3 and the Cheng–Prusoff equation and represent the average from at least three different determinations. All recombinant CA isoforms were obtained in-house as previously reported[24]^,[25].

[2] = molecular target: T2, hCA I (Homo sapiens, UniProt P00915); assay: stopped-flow CO2 hydrase assay, hCA I; assay type: biochemical; settings: for inhibition of hCA I (in words): result stated in words; for Ki: recombinant hCA I, CO2 hydration, 15 min preincubation
T2 construct: made in house
T2 sequence (P00915 whole entry): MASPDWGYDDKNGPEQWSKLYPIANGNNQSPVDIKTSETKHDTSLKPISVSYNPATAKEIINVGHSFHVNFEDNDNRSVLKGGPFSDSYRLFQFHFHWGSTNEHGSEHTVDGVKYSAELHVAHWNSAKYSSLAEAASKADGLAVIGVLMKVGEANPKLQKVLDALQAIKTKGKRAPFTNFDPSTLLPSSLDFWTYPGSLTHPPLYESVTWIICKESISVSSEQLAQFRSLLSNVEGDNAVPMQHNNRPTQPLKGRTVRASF
Experimental: as §1

[3] = molecular target: T3, hCA XII (Homo sapiens, UniProt O43570); assay: stopped-flow CO2 hydrase assay, hCA XII; assay type: biochemical; settings: result stated in words
T3 construct: made in house
T3 sequence (O43570 25-354): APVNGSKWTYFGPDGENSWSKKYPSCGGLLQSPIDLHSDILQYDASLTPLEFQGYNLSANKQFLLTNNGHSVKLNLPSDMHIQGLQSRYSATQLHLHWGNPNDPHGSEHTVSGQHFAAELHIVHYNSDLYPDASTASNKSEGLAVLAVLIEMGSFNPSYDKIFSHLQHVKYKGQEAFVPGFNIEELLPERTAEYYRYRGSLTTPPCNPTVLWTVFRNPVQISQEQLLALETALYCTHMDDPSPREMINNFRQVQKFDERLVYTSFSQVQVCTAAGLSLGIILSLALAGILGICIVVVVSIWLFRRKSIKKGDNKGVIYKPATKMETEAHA
Experimental: as §1

[4] = molecular target: T4, hCA IX (Homo sapiens, UniProt Q16790); assay: stopped-flow CO2 hydrase assay, hCA IX; assay type: biochemical; settings: for inhibition of hCA IX (in words): result stated in words
T4 construct: made in house
Experimental: as §1

Structure (SMILES) | melting point | Ki [1] [nM] | inhibition of hCA II (in words) [1] | inhibition of hCA I (in words) [2] | inhibition of hCA XII (in words) [3] | inhibition of hCA IX (in words) [4] | Ki [2] [nM] | Ki ([4]; recombinant hCA IX, CO2 hydration, 15 min preincubation) [nM]
CCCC(Oc1ccc(C(=O)c2ccccc2)cc1)C(=O)NS(=O)(=O)c1ccccc1 (stereo not shown) [Compound 27, 2-(4-Benzoylphenoxy)-N-(phenylsulphonyl)pentanamide] |  |  | did not induce a sensible inhibition | did not induce a sensible inhibition | did not induce a sensible inhibition | did not induce a sensible inhibition |  | 
Cc1ccc(C)c(OCCCC(C)(C)C(=O)NS(=O)(=O)c2ccccc2)c1 [Compound 16] |  |  | completely inactive | completely inactive | completely inactive | completely inactive |  | 
CC(C)(Oc1ccc(CCNC(=O)c2ccc(Cl)cc2)cc1)C(=O)NS(=O)(=O)c1ccccc1 [Compound 17] |  |  | moderate inhibition | moderate inhibition |  | moderate inhibition |  | 
O=C(COc1ccc(C(=O)c2ccccc2)cc1)NS(=O)(=O)c1ccccc1 [Compound 26, 2-(4-Benzoylphenoxy)-N-(phenylsulphonyl)acetamide] | 61 to 62 °C |  | did not induce a sensible inhibition | did not induce a sensible inhibition | did not induce a sensible inhibition | did not induce a sensible inhibition |  | 
CC(C)(Oc1ccc(C(=O)c2ccc(Cl)cc2)cc1)C(=O)NS(=O)(=O)c1ccccc1 [Compound 18] |  | 1300 | moderate inhibition | moderate inhibition; also recorded: submicromolar |  | moderate inhibition; also recorded: submicromolar | < 10000 | 440
CC(C)(Oc1ccc(Cl)cc1)C(=O)NS(=O)(=O)c1ccccc1 [Compound 15] |  |  | completely inactive | completely inactive | completely inactive | completely inactive |  | 

Further lines, results first:

melting point | Ki [1] [nM] | inhibition of hCA II (in words) [1] | inhibition of hCA I (in words) [2] | inhibition of hCA XII (in words) [3] | inhibition of hCA IX (in words) [4] | Ki [2] [nM] | Ki ([4]; recombinant hCA IX, CO2 hydration, 15 min preincubation) [nM] | Structure (SMILES)
188 to 189 °C |  |  |  |  |  |  |  | COc1ccc(S(=O)(=O)NC(=O)C(C)(C)Oc2ccc(C(=O)c3ccc(Cl)cc3)cc2)cc1 [Compound 20, 2-[4-(4-Chlorobenzoyl)phenoxy]-N-[(4-methoxyphenyl)sulfonyl]-2-methylpropanamide]
196 to 198 °C | 16 |  |  |  |  |  |  | CC(C)(Oc1ccc(C(=O)c2ccc(Cl)cc2)cc1)C(=O)NS(=O)(=O)c1ccc([N+](=O)[O-])cc1 [Compound 22, 2-[4–(4-Chlorobenzoyl)phenoxy]-2-methyl-N-[(4-nitrophenyl)sulfonyl]propanamide]
226 to 228 °C |  |  |  |  |  |  |  | CC(=O)Nc1ccc(S(=O)(=O)NC(=O)C(C)(C)Oc2ccc(C(=O)c3ccc(Cl)cc3)cc2)cc1 [Compound 23, N-{[4-(acetylamino)phenyl]sulfonyl}-2-[4–(4-chlorobenzoyl)phenoxy]-2-methylpropanamide]
204 to 205 °C (dec.) |  |  |  |  |  | < 10000 |  | CC(C)(Oc1ccc(C(=O)c2ccc(Cl)cc2)cc1)C(=O)NS(=O)(=O)c1ccc(Cl)cc1 [Compound 21, 2-[4–(4-Chlorobenzoyl)phenoxy]-N-[(4-chlorophenyl)sulfonyl]-2-methylpropanamide]
232 to 234 °C | 77 | marked effect | marked effect |  |  | < 10000 |  | CC(C)(Oc1ccc(C(=O)c2ccc(Cl)cc2)cc1)C(=O)NS(=O)(=O)c1ccc(NC(=O)c2ccccc2)cc1 [Compound 24, N-{4-[({2-[4–(4-chlorobenzoyl)phenoxy]-2-methylpropanoyl}amino)sulfonyl]phenyl} benzamide]
